{
  "source": "patent US20230405069A1",
  "about": "“METHODS OF TREATING AND […] CORONAVIRUS AND OTHER INDICATIONS, AND COMPOSITIONS FOR USE WITH SAME” (priority 2020, published 2023)",
  "system": "viral infection",
  "test": "Subjects with symptoms of viral infection treated with disclosed medicinal compositions (symptom improvement / recovery)",
  "format": "in vivo, human",
  "details": "Patient 6; one paracetamol/acetaminophen on Day 1 of symptoms",
  "from_the_text": "The disclosed compositions are useful in reducing symptoms and/or eliminating viruses in persons suffering from a viral infection or believed to be suffering from a viral infection. Eliminating a virus or an infection from a subject, as used herein, may be referred to as ‘curing’ a subject, for example wherein a subject that has tested positive for the virus (by DNA, RNA, protein, and/or antibody analysis) has no detectable virus (by the same or a different method) after treatment. In these subjects, adults may be administered about 2 ml to about 150 ml per composition per day as a single dose or separated into multiple doses. In some embodiments the subject may be administered the disclosed compounds once, twice, three, or more times a day. In some embodiments, for example, an adult may be administered about 5 ml to about 150 ml of each medicinal composition each day. In many embodiments, (for example where the dose is 15 ml/day) 5 ml is administered 3 times per day as a 5 ml dose. In other embodiments, a 5 ml/day dose may also be divided into 3 or more smaller doses for administration throughout the day—for example about 2 ml three times per day. […]",
  "data": [
    {"smiles": "CC(=O)Nc1ccc(O)cc1", "note": "[paracetamol/acetaminophen]", "values": [
      {"measurement": "effect on symptoms", "result": "symptoms persisted"}
    ]}
  ]
}
